# Measurements as given in patent US20230116399A1, “Tumor Homing Statin Derivatives” (Da Zen Theranostics, Inc., priority 2019, published 2023).
# Where two headings read alike, the source gives them in different places.
# Experiments:
# PC3 (PC) = experiment: MTT cell viability, PC3; assay type: cell-based; details: Homo sapiens, 48 h / 24 hours, relative IC50
# Experimental: (§1) Cell culture: In the following examples, unless otherwise specified, all cell lines are purchased from American Type Culture Collection and cultured in American Type Culture Collection (ATCC)-recommended media, with fetal bovine serum (FBS) to a final concentration of 10% and 1×penicillin/streptomycin at 37° C. with 5% CO2 in a cell culture incubator, unless otherwise specified. Unless otherwise specified, culture is 2D. Where culture is 3D, low attachment plates are used, with the same media. C4-2B (parental cell line and drug-resistant cells derived therefrom) are cultured in RPMI-1640 with 10% FBS. MDVR cells (an Enzalutamide-resistant variety of C4-2B prostate cancer cells formed as described in Example 4 below) are cultured as indicated for the parental C4-2B cells. 22RV1 Prostate Cancer (PC) cells (ATCC® CRL-2505™, a human prostate carcinoma cell line of epithelial morphology) are cultured in RPMI-1640 with 10% FBS. A549 cells (ATCC® CCL-185™, a human lung carcinoma cell line of epithelial morphology) are cultured in F-12K medium with 10% FBS. A549/DDP cells (Cells were described in DOI: 10.3892/mmr.2014.2163 and in doi: 10.7150/jca.19426; cisplatin resistant cells may be established from exposing parental A549 cells to cisplatin for an extended time). MDR A549/cisplatin lung adenocarcinoma cell line, drug resistant) are cultured in F-12K medium with 10% FBS. […]
# [1] = tested on: 22RV1 prostate cancer cells; experiment: Cell viability by trypan blue counting, 22RV1; assay type: cell-based, human; details: read-out: IC50 for reduction of cell viability/growth inhibition
# Experimental: as §1, with “FBS.” for “FBS. A549 cells (ATCC® CCL-185™, a human lung carcinoma cell line of epithelial morphology) are cultured in F-12K medium with 10% FBS. A549/DDP cells (Cells were described in DOI: 10.3892/mmr.2014.2163 and in doi: 10.7150/jca.19426; cisplatin resistant cells may be established from exposing parental A549 cells to cisplatin for an extended time). MDR A549/cisplatin lung adenocarcinoma cell line, drug resistant) are cultured in F-12K medium with 10% FBS.”
# Example 1B: Prostate Cancer (PC) cells (22RV1, ATCC® CRL-2505™, a human prostate carcinoma cell line) are cultured according to the standard protocol, and exposed for 24-48 hours, to 0-50 μM of the respective compound (THSD, unconjugated dye). Cell viability is determined by counting viable cells and dead cells after treatment of the cells with trypan blue dye to distinguish viable from dead cells. […]
# 22RV1 (PC) = experiment: MTT cell viability, 22RV1; assay type: cell-based, human; details: Homo sapiens, 22Rv1, 22RV1, treated for 48 h /, relative IC50
# Experimental: Cell culture: In the following examples, unless otherwise specified, all cell lines are purchased from American Type Culture Collection and cultured in American Type Culture Collection (ATCC)-recommended media, with fetal bovine serum (FBS) to a final concentration of 10% and 1×penicillin/streptomycin at 37° C. with 5% CO2 in a cell culture incubator, unless otherwise specified. Unless otherwise specified, culture is 2D. Where culture is 3D, low attachment plates are used, with the same media. C4-2B (parental cell line and drug-resistant cells derived therefrom) are cultured in RPMI-1640 with 10% FBS. MDVR cells (an Enzalutamide-resistant variety of C4-2B prostate cancer cells formed as described in Example 4 below) are cultured as indicated for the parental C4-2B cells. 22RV1 Prostate Cancer (PC) cells (ATCC® CRL-2505™, a human prostate carcinoma cell line of epithelial morphology) are cultured in RPMI-1640 with 10% FBS. A549 cells (ATCC® CCL-185™, a human lung carcinoma cell line of epithelial morphology) are cultured in F-12K medium with 10% FBS. A549/DDP cells (Cells were described in DOI: 10.3892/mmr.2014.2163 and in doi: 10.7150/jca.19426; cisplatin resistant cells may be established from exposing parental A549 cells to cisplatin for an extended time). MDR A549/cisplatin lung adenocarcinoma cell line, drug resistant) are cultured in F-12K medium with 10% FBS. H1975 cells (ATCC® CRL-5908™, a human adenocarcinoma non-small cell lung cancer cell line of epithelial morphology) are cultured in RPMI-1640 medium with 10% FBS; H1975 cells are a cell model for human lung cancer that is resistant to Gefitinib (an EGFR inhibitor drug used for treatment of certain breast, lung and other cancers). H1650 cells (ATCC® CRL-5883™, a adenocarcinoma/bronchoalveolar carcinoma lung cancer cell line of epithelial morphology) are cultured in RPMI-1640 medium with 10% FBS. […]
# […] For each cell line, the IC50 is determined for each drug, i.e. the ELSD, the ALSD, and for the corresponding unconjugated statin (Simvastatin), in concentrations from 0.1-100 μM. […]
compound,measurement,setting,value
CCC(C)(C)C(=O)O[C@H]1C[C@@H](C)C=C2C=C[C@H](C)[C@H](CC[C@@H]3C[C@@H](O)CC(=O)O3)[C@H]21 [Simvastatin],IC50,PC3 (PC),14.8 µM
same,IC50,"[1]; 22RV1, exposed 24-48 hours, listed as unconjugated statin",> 50 µM
same,IC50,"[1]; Homo sapiens, 22Rv1, 22RV1, exposed 24-48 hours",> 60 µM
same,IC50,22RV1 (PC),38.7 µM
